How the values were obtained:
Conditions in all cases: Dutch harbor, sea water
[1] = tested on: fouling organisms; experiment: Raft panel static immersion test of antifouling paints: overall; set-up: key: good (G); satisfactory (S); failure (F)
Excerpt: (§1) The prepared paints have been evaluated on can stability, adhesion and film defects. The antifouling performance has been tested by application of the paints on raft panels. At first the steel panels had been protected with a standard anticorrosive system for marine environments (300 μm in dft). The to be tested antifouling paint had been applied in 2 layers with a total dry film thickness between 200 and 300 μm. Finally the panels were subjected to a static immersion test on rafts at sea harbors in Holland. The paints were inspected for the presence of fouling (% of area covered with fouling organisms) and of film defects every two months. The tested paint formulations are represented in Table 1.
(§2) Further explanations to Table 1: • 1. Model coatings of type 1 (MC-1A/B/C) are for the evaluation of the algicidal properties of the claimed structures at three different representative weight-% next to 35% cuprous oxide. Good performing references are model coating MC-2 and MC-3 [35% cuprous oxide+3% Seanine (MC-2) or 35% cuprous oxide+3% Irgarol (MC-3)]. Base level references are “cuprous oxide only” formulations [cuprous oxide only (35% (MC4) and 50% level (MC-5)]. • 2. Model coatings of type 6 and 7 are for the evaluation of the activity of the claimed structures against “hard fouling” in combination with two different types of algicides: claimed structure (1/2/4%; MC-6-A/B/C)+3% Seanine or claimed structure (1/2/4%; MC-7-A/B/C)+3% Irgarol). Base level references are “algicide only” formulations with 3% Seanine (MC-8) or 3% Irgarol (MC-9).
(§3) 3. Model coatings of type 10 (MC-10A/B) evaluate the total spectrum of biocidal activity by using the claimed structure as only biocide at 2 levels (4 and 8 w %). Good performing references are “cuprous oxide only” formulations [cuprous oxide 35% (MC-4) and 50% (MC-5)]. As blank serves model coating 11 (MC-1 1) containing no biocide at all.
(§4) The claimed structures were tested at several levels of dosage with and without an algicide as co-biocide. The following formulations were used for comparison: formulations with cuprous oxide, formulations with cuprous oxide and commercial co-biocides, a blank and two formulations that only contained the co-biocide and finally a commercial tributyltin-releasing self polishing system.
(§5) An even better protection can be obtained by combining claimed structures with co-biocides like the algicides that are commonly used for antifoulings.

[2] = tested on: slime; experiment: Raft panel static immersion test of antifouling paints: slime; set-up: key: G: Not present; Some light slime; F: Overall covered
Excerpt: as §1, §2, §3, §4, §5

[3] = tested on: algae; experiment: Raft panel static immersion test of antifouling paints: algae; set-up: key: G: Not present; Some light slime; F: Overall covered
Excerpt: as §1, §2, §3, §4, §5

[4] = tested on: hard fouling; experiment: Raft panel static immersion test of antifouling paints: hard fouling; set-up: key: G: Not present; Some light slime; F: Overall covered
Excerpt: as §1, §2, §3, §4, §5

[5] = model coating 1A: 35% Cu2O + 1% of compound
[6] = model coating 1B: 35% Cu2O + 2% of compound
[7] = model coating 1C: 35% Cu2O + 3% of compound
[8] = model coating 6A: 1% of compound + 3% Seanine
[9] = model coating 6B: 2% of compound + 3% Seanine
[10] = model coating 6C: 4% of compound + 3% Seanine
[11] = model coating 7A: 1% of compound + 3% Irgarol
[12] = model coating 7B: 2% of compound + 3% Irgarol
[13] = model coating 7C: 4% of compound + 3% Irgarol
[14] = model coating 10A: 4% of compound as only biocide
[15] = model coating 10B: 8% of compound as only biocide

O=CNCCCCCCCCCC(Br)CBr (centres unmarked) [Compound 3, N-formyl-10,11-dibromoundecylamine]
F: Performance (1 yr immersed) Overall [1, 8] | Performance (1 yr immersed) Overall [1, 11] | Performance (1 yr immersed) Overall [1, 14] | Performance (1 yr immersed) Slime [2, 14]
G: Performance (1 yr immersed) Overall [1, 7] | Performance (1 yr immersed) Overall [1, 10] | Performance (1 yr immersed) Slime [2, 7] | Performance (1 yr immersed) Slime [2, 10] | Performance (1 yr immersed) Algae [3, 6] | Performance (1 yr immersed) Algae [3, 7] | Performance (1 yr immersed) Algae [3, 8] | Performance (1 yr immersed) Algae [3, 9] | Performance (1 yr immersed) Algae [3, 10] | Performance (1 yr immersed) Algae [3, 11] | Performance (1 yr immersed) Algae [3, 12] | Performance (1 yr immersed) Algae [3, 13] | Performance (1 yr immersed) Hard fouling [4, 5] | Performance (1 yr immersed) Hard fouling [4, 6] | Performance (1 yr immersed) Hard fouling [4, 7] | Performance (1 yr immersed) Hard fouling [4, 10] | Performance (1 yr immersed) Hard fouling [4, 15]
S: Performance (1 yr immersed) Overall [1, 5] | Performance (1 yr immersed) Overall [1, 6] | Performance (1 yr immersed) Overall [1, 9] | Performance (1 yr immersed) Overall [1, 12] | Performance (1 yr immersed) Overall [1, 13] | Performance (1 yr immersed) Overall [1, 15] | Performance (1 yr immersed) Slime [2, 5] | Performance (1 yr immersed) Slime [2, 6] | Performance (1 yr immersed) Slime [2, 8] | Performance (1 yr immersed) Slime [2, 9] | Performance (1 yr immersed) Slime [2, 11] | Performance (1 yr immersed) Slime [2, 12] | Performance (1 yr immersed) Slime [2, 13] | Performance (1 yr immersed) Slime [2, 15]

O=CNCCCCCCCCCCCBr [Compound 7, N-formyl-11-bromo-undecyl-1-amine]
S: Performance (1 yr immersed) Overall [1, 5] | Performance (1 yr immersed) Overall [1, 6] | Performance (1 yr immersed) Overall [1, 9] | Performance (1 yr immersed) Overall [1, 12] | Performance (1 yr immersed) Overall [1, 13] | Performance (1 yr immersed) Overall [1, 15] | Performance (1 yr immersed) Slime [2, 5] | Performance (1 yr immersed) Slime [2, 6] | Performance (1 yr immersed) Slime [2, 8] | Performance (1 yr immersed) Slime [2, 9] | Performance (1 yr immersed) Slime [2, 11] | Performance (1 yr immersed) Slime [2, 12] | Performance (1 yr immersed) Slime [2, 13] | Performance (1 yr immersed) Slime [2, 15]
F: Performance (1 yr immersed) Overall [1, 8] | Performance (1 yr immersed) Overall [1, 11] | Performance (1 yr immersed) Overall [1, 14] | Performance (1 yr immersed) Slime [2, 14]
G: Performance (1 yr immersed) Overall [1, 7] | Performance (1 yr immersed) Overall [1, 10] | Performance (1 yr immersed) Slime [2, 7] | Performance (1 yr immersed) Slime [2, 10] | Performance (1 yr immersed) Algae [3, 6] | Performance (1 yr immersed) Algae [3, 7] | Performance (1 yr immersed) Algae [3, 8] | Performance (1 yr immersed) Algae [3, 9] | Performance (1 yr immersed) Algae [3, 10] | Performance (1 yr immersed) Algae [3, 11] | Performance (1 yr immersed) Algae [3, 12] | Performance (1 yr immersed) Algae [3, 13] | Performance (1 yr immersed) Hard fouling [4, 5] | Performance (1 yr immersed) Hard fouling [4, 6] | Performance (1 yr immersed) Hard fouling [4, 7] | Performance (1 yr immersed) Hard fouling [4, 10] | Performance (1 yr immersed) Hard fouling [4, 15]

CCCCCCCCCCCNC=O [Compound 9, N-formyl-1-aminoundecane]
G: Performance (1 yr immersed) Overall [1, 7] | Performance (1 yr immersed) Overall [1, 10] | Performance (1 yr immersed) Slime [2, 7] | Performance (1 yr immersed) Slime [2, 10] | Performance (1 yr immersed) Algae [3, 6] | Performance (1 yr immersed) Algae [3, 7] | Performance (1 yr immersed) Algae [3, 8] | Performance (1 yr immersed) Algae [3, 9] | Performance (1 yr immersed) Algae [3, 10] | Performance (1 yr immersed) Algae [3, 11] | Performance (1 yr immersed) Algae [3, 12] | Performance (1 yr immersed) Algae [3, 13] | Performance (1 yr immersed) Hard fouling [4, 5] | Performance (1 yr immersed) Hard fouling [4, 6] | Performance (1 yr immersed) Hard fouling [4, 7] | Performance (1 yr immersed) Hard fouling [4, 10] | Performance (1 yr immersed) Hard fouling [4, 15]
F: Performance (1 yr immersed) Overall [1, 8] | Performance (1 yr immersed) Overall [1, 11] | Performance (1 yr immersed) Overall [1, 14] | Performance (1 yr immersed) Slime [2, 14]
S: Performance (1 yr immersed) Overall [1, 5] | Performance (1 yr immersed) Overall [1, 6] | Performance (1 yr immersed) Overall [1, 9] | Performance (1 yr immersed) Overall [1, 12] | Performance (1 yr immersed) Overall [1, 13] | Performance (1 yr immersed) Overall [1, 15] | Performance (1 yr immersed) Slime [2, 5] | Performance (1 yr immersed) Slime [2, 6] | Performance (1 yr immersed) Slime [2, 8] | Performance (1 yr immersed) Slime [2, 9] | Performance (1 yr immersed) Slime [2, 11] | Performance (1 yr immersed) Slime [2, 12] | Performance (1 yr immersed) Slime [2, 13] | Performance (1 yr immersed) Slime [2, 15]

COC(=O)NCCCCCCBr [Compound 2, N-methoxycarbonyl-6-bromohexylamine]
F: Performance (1 yr immersed) Overall [1, 8] | Performance (1 yr immersed) Overall [1, 11] | Performance (1 yr immersed) Overall [1, 14] | Performance (1 yr immersed) Slime [2, 14]
G: Performance (1 yr immersed) Overall [1, 7] | Performance (1 yr immersed) Overall [1, 10] | Performance (1 yr immersed) Slime [2, 7] | Performance (1 yr immersed) Slime [2, 10] | Performance (1 yr immersed) Algae [3, 6] | Performance (1 yr immersed) Algae [3, 7] | Performance (1 yr immersed) Algae [3, 8] | Performance (1 yr immersed) Algae [3, 9] | Performance (1 yr immersed) Algae [3, 10] | Performance (1 yr immersed) Algae [3, 11] | Performance (1 yr immersed) Algae [3, 12] | Performance (1 yr immersed) Algae [3, 13] | Performance (1 yr immersed) Hard fouling [4, 5] | Performance (1 yr immersed) Hard fouling [4, 6] | Performance (1 yr immersed) Hard fouling [4, 7] | Performance (1 yr immersed) Hard fouling [4, 10] | Performance (1 yr immersed) Hard fouling [4, 15]
S: Performance (1 yr immersed) Overall [1, 5] | Performance (1 yr immersed) Overall [1, 6] | Performance (1 yr immersed) Overall [1, 9] | Performance (1 yr immersed) Overall [1, 12] | Performance (1 yr immersed) Overall [1, 13] | Performance (1 yr immersed) Overall [1, 15] | Performance (1 yr immersed) Slime [2, 5] | Performance (1 yr immersed) Slime [2, 6] | Performance (1 yr immersed) Slime [2, 8] | Performance (1 yr immersed) Slime [2, 9] | Performance (1 yr immersed) Slime [2, 11] | Performance (1 yr immersed) Slime [2, 12] | Performance (1 yr immersed) Slime [2, 13] | Performance (1 yr immersed) Slime [2, 15]
